We go through 14 molecules from patent US7786113B2, “Heterocyclic carbamate derivatives, their manufacture and use as pharmaceutical agents” (Hoffman-La Roche Inc., priority 2004, dated 2010).

One data set concerns the target T1, Src (p60^c-src) (Homo sapiens, UniProt P12931).
T1 construct: purchased UBI, Upstate Biotech, Inc
The data set can be described thus: SRC-Inhibitor-Assay (time-resolved fluorescence kinase assay), Src. It is filed as biochemical. Conditions: ATP 5 μM, peptide 10 μM, enzyme 2.5 U/ml, pH 7.3. The source says:
(§1) The activity of the compounds according to this invention as inhibitors for the src-family tyrosine kinases was shown by using the following assay.
(§2) ATP, Tween™ 20, 4-(2-hydroxyethyl)-1-piperazineethanesulfonic acid (HEPES) were purchased from Roche Molecular Biochemicals, MgCl2 and MnCl2 were purchased from Merck Eurolab, Tris(2-carboxyethyl)phosphine hydrochloride (TCEP) was purchased from Pierce, 384 Well low volume fluorescence plates was purchased from Falcon.
(§3) At first the enzyme is pre-incubated for 15 min. at 15° C. in aqueous solution with corresponding amounts of inhibitors according to this invention. Then the phosphorylation reaction is started by adding a reaction mixture, containing ATP, Peptide and PT66, and subsequent shaking. The proceeding of this reaction is immediately monitored using time resolved fluorescence spectroscopy in a suitable well plate reader.
(§4) The IC50-values can be obtained from the reaction rates by using a non-linear curve fit (XLfit software (ID Business Solution Ltd., Guilford, Surrey, UK))

A further data set concerns the target T2, Lck (p56^lck) (Homo sapiens, UniProt P06239).
T2 construct: purchased UBI, Upstate Biotech, Inc
The data set can be described thus: SRC-Inhibitor-Assay (time-resolved fluorescence kinase assay), Lck. The data set is classed as biochemical. The following applies: ATP 5 μM, peptide 10 μM, enzyme 2.5 U/ml, pH 7.3.
Description: as §1, §2, §3, §4

T1 sequence (P12931 whole entry): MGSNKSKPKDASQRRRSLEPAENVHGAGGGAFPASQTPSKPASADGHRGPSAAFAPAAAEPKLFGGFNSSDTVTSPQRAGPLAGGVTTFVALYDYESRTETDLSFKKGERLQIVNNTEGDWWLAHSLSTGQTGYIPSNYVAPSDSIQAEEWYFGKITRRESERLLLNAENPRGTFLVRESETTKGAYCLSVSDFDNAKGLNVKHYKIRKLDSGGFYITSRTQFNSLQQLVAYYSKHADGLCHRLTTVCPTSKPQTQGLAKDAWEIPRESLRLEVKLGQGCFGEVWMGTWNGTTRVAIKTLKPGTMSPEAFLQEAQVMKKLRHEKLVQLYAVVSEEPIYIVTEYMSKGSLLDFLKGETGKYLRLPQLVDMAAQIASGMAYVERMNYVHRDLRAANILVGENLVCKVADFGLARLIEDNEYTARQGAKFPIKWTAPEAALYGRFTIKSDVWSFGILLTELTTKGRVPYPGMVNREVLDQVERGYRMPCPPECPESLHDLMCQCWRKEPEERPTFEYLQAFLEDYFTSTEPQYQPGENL
T2 sequence (P06239 whole entry): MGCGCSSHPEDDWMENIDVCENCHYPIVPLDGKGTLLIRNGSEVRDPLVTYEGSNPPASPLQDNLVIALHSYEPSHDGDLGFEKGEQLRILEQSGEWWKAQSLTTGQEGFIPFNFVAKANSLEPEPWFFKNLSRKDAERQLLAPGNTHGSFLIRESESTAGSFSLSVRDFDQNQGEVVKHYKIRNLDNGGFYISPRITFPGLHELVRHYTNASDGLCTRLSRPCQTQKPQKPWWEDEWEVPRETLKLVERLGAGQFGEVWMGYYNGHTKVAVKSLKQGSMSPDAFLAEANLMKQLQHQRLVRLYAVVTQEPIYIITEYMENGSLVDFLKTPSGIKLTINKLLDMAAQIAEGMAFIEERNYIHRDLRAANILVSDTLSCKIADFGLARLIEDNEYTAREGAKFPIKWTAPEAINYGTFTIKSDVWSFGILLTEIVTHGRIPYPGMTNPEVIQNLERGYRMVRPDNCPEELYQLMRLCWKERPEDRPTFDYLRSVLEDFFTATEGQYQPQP

Turning to `CC(C)OC(=O)Nc1cnc2[nH]c(-c3ccsc3)nc2c1` [Example 2-7, (2-Thiophen-3-yl-3H-imidazo[4,5-b]pyridin-6-yl)-carbamic acid isopropyl ester], the melting point (in general, the temperature of the solid-liquid transition) is 342 °C (dec.).

On to `C#CC(C)OC(=O)Nc1cnc2[nH]c(-c3ccccc3)nc2c1` (stereo not drawn) [Example 1-15, (2-Phenyl-3H-imidazo[4,5-b]pyridin-6-yl)-carbamic acid 1-methyl-prop-2-ynyl ester], for which the IC50 (as a rule, the concentration that inhibits the measured activity by half) lay within 10 to 500 nM against Src (p60^c-src) and 100 to 9000 nM against Lck (p56^lck). As for `CC(C)OC(=O)Nc1cnc2[nH]c(-c3ccc([N+](=O)[O-])cc3)nc2c1` [Example 3-4, [2-(4-Nitro-phenyl)-3H-imidazo[4,5-b]pyridin-6-yl]-carbamic acid isopropyl ester], the IC50 was in the range of 10 to 500 nM against Src (p60^c-src) and 100 to 9000 nM against Lck (p56^lck).

For `C=CCOC(=O)Nc1cnc2[nH]c(-c3ccc(OCCOC)cc3)cc2c1` [Example 9-5, {2-[4-(2-Methoxy-ethoxy)-phenyl]-1H-pyrrolo[2,3-b]pyridin-5-yl}-carbamic acid allyl ester], the 50% inhibitory concentration (IC50) against Src (p60^c-src) was 10 to 500 nM; at Lck (p56^lck), 100 to 9000 nM.

Turning to `CCC(C)OC(=O)Nc1cnc2[nH]c(-c3ccccc3)nc2c1` (stereo not drawn) [Example 1-9, (2-Phenyl-3H-imidazo[4,5-b]pyridin-6-yl)-carbamic acid sec-butyl ester], the IC50 on Src (p60^c-src) lay in the range of 10 to 500 nM; at Lck (p56^lck) it was 100 to 9000 nM. As to `O=C(Nc1cnc2[nH]c(-c3ccccc3)nc2c1)OC1CCC1` [Example 1-17, (2-Phenyl-3H-imidazo[4,5-b]pyridin-6-yl)-carbamic acid cyclobutyl ester], the IC50 was 10 to 500 nM on Src (p60^c-src) and 100 to 9000 nM on Lck (p56^lck). For `COCCOc1ccc(-c2cc3cc(NC(=O)OC(C)C)cnc3[nH]2)cc1` [Example 9-17, {2-[4-(2-Methoxy-ethoxy)-phenyl]-1H-pyrrolo[2,3-b]pyridin-5-yl}-carbamic acid isopropyl ester] the same measures were 10 to 500 nM and 100 to 9000 nM. Turning to `CC(C)OC(=O)Nc1cnc2[nH]c(-c3cccc(S(C)(=O)=O)c3)nc2c1` [Example 8-2, [2-(3-Methylsulfonyl-phenyl)-3H-imidazo[4,5-b]pyridin-6-yl]-carbamic acid isopropyl ester], the concentration for half-maximal inhibition (IC50) on Src (p60^c-src) lay in the range of 10 to 500 nM; at Lck (p56^lck) it was 100 to 9000 nM. Turning to `CCOC(=O)Nc1cnc2[nH]c(-c3ccc(OCCOC)cc3)cc2c1` [Example 9-4, {2-[4-(2-Methoxy-ethoxy)-phenyl]-1H-pyrrolo[2,3-b]pyridin-5-yl}-carbamic acid ethyl ester], the IC50 against Src (p60^c-src) was in the range of 10 to 500 nM; against Lck (p56^lck), 100 to 9000 nM. With `C=CC(C)OC(=O)Nc1cnc2[nH]c(-c3ccccc3)nc2c1` (stereo not drawn) [Example 1-1, (2-Phenyl-3H-imidazo[4,5-b]pyridin-6-yl)-carbamic acid 1-methyl-allyl ester], the IC50 against Src (p60^c-src) fell in the range of 10 to 500 nM; on Lck (p56^lck), 100 to 9000 nM. As for `CCN(CC)CCOc1ccc(-c2nc3cc(NC(=O)OC(C)C)cnc3[nH]2)cc1` [Example 2-1, {2-[4-(2-Diethylamino-ethoxy)-phenyl]-3H-imidazo[4,5-b]pyridin-6-yl}-carbamic acid isopropyl ester], the IC50 is 10 to 500 nM against Src (p60^c-src) and 100 to 9000 nM at Lck (p56^lck). Regarding `CC(=O)Nc1cccc(-c2cc3cc(NC(=O)OCC(C)C)cnc3[nH]2)c1` [Example 9-28, [2-(3-Acetylamino-phenyl)-1H-pyrrolo[2,3-b]pyridin-5-yl]-carbamic acid isobutyl ester], the half-maximal inhibitory concentration (IC50) at Src (p60^c-src) lay within 10 to 500 nM; against Lck (p56^lck) it was 100 to 9000 nM. On to `CC(C)OC(=O)Nc1cnc2[nH]c(-c3cccc(CCO)c3)nc2c1` [Example 2-9, {2-[3-(2-Hydroxy-ethyl)-phenyl]-3H-imidazo[4,5-b]pyridin-6-yl}-carbamic acid isopropyl ester], for which the half-inhibitory concentration (IC50) at Src (p60^c-src) lay within 10 to 500 nM; on Lck (p56^lck) it was 100 to 9000 nM.

For `CC(=O)Nc1cccc(-c2cc3cc(NC(=O)OC(C)C)cnc3[nH]2)c1` [Example 9-20, [2-(3-Acetylamino-phenyl)-1H-pyrrolo[2,3-b]pyridin-5-yl]-carbamic acid isopropyl ester], the half-inhibitory concentration (IC50) is 10 to 500 nM at Src (p60^c-src) and 100 to 9000 nM against Lck (p56^lck).
